System: Mitochondria-located protein genes
Test: DNA chip mRNA expression in yeast, mitochondria-located protein genes (Table 2)
Assay type: cell-based, Saccharomyces cerevisiae S288C
Conditions: cells incubated two hours with the chemical substance
Procedure, shortened: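 First, S288C yeast grown in YPD at 25° C. are dosed in log phase with one toxicant (growth-inhibiting, not lethal) for 2 h. Next, total RNA is extracted and poly(A) mRNA isolated and reverse-transcribed with Cy3/Cy5-dUTP. Finally, whole-genome chip fluorescence is read relative to unexposed cells.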

N#Cc1c(Cl)c(Cl)c(Cl)c(C#N)c1Cl [(9), 2,4,5,6-tetrachloro-1,3-benzenedicarbonitrile]
The level of expressed mRNA in the presence of chemical substance/The level of expressed mRNA in the absence of chemical substance (yeast gene YAL039C): 1.6
The level of expressed mRNA in the presence of chemical substance/The level of expressed mRNA in the absence of chemical substance (yeast gene YBL022C): 2.8
The level of expressed mRNA in the presence of chemical substance/The level of expressed mRNA in the absence of chemical substance (yeast gene YBL030C): 0.4
The level of expressed mRNA in the presence of chemical substance/The level of expressed mRNA in the absence of chemical substance (yeast gene YBL038W): 1.4
The level of expressed mRNA in the presence of chemical substance/The level of expressed mRNA in the absence of chemical substance (yeast gene YBL099W): 0.9
The level of expressed mRNA in the presence of chemical substance/The level of expressed mRNA in the absence of chemical substance (yeast gene YBR003W): 1.0
The level of expressed mRNA in the presence of chemical substance/The level of expressed mRNA in the absence of chemical substance (yeast gene YBR044C): 0.8
The level of expressed mRNA in the presence of chemical substance/The level of expressed mRNA in the absence of chemical substance (yeast gene YBR091C): 0.7
The level of expressed mRNA in the presence of chemical substance/The level of expressed mRNA in the absence of chemical substance (yeast gene YBR122C): 1.1
The level of expressed mRNA in the presence of chemical substance/The level of expressed mRNA in the absence of chemical substance (yeast gene YBR185C): 0.9
The level of expressed mRNA in the presence of chemical substance/The level of expressed mRNA in the absence of chemical substance (yeast gene YBR221C): 1.0
The level of expressed mRNA in the presence of chemical substance/The level of expressed mRNA in the absence of chemical substance (yeast gene YBR251W): 0.5
The level of expressed mRNA in the presence of chemical substance/The level of expressed mRNA in the absence of chemical substance (yeast gene YBR282W): 1.0
The level of expressed mRNA in the presence of chemical substance/The level of expressed mRNA in the absence of chemical substance (yeast gene YCL057W): 4.2
The level of expressed mRNA in the presence of chemical substance/The level of expressed mRNA in the absence of chemical substance (yeast gene YCR046C): 1.9
The level of expressed mRNA in the presence of chemical substance/The level of expressed mRNA in the absence of chemical substance (yeast gene YCR083W): 1.8
The level of expressed mRNA in the presence of chemical substance/The level of expressed mRNA in the absence of chemical substance (yeast gene YDL067C): 0.9
The level of expressed mRNA in the presence of chemical substance/The level of expressed mRNA in the absence of chemical substance (yeast gene YDL181W): 0.7
The level of expressed mRNA in the presence of chemical substance/The level of expressed mRNA in the absence of chemical substance (yeast gene YDL198C): 1.9
The level of expressed mRNA in the presence of chemical substance/The level of expressed mRNA in the absence of chemical substance (yeast gene YDR079W): 0.9
The level of expressed mRNA in the presence of chemical substance/The level of expressed mRNA in the absence of chemical substance (yeast gene YDR178W): 0.9
The level of expressed mRNA in the presence of chemical substance/The level of expressed mRNA in the absence of chemical substance (yeast gene YDR231C): 1.5
The level of expressed mRNA in the presence of chemical substance/The level of expressed mRNA in the absence of chemical substance (yeast gene YDR258C): 4.9
The level of expressed mRNA in the presence of chemical substance/The level of expressed mRNA in the absence of chemical substance (yeast gene YDR298C): 1.0
The level of expressed mRNA in the presence of chemical substance/The level of expressed mRNA in the absence of chemical substance (yeast gene YDR347W): 0.8
The level of expressed mRNA in the presence of chemical substance/The level of expressed mRNA in the absence of chemical substance (yeast gene YDR377W): 1.0
The level of expressed mRNA in the presence of chemical substance/The level of expressed mRNA in the absence of chemical substance (yeast gene YDR529C): 0.5
The level of expressed mRNA in the presence of chemical substance/The level of expressed mRNA in the absence of chemical substance (yeast gene YEL024W): 0.7
The level of expressed mRNA in the presence of chemical substance/The level of expressed mRNA in the absence of chemical substance (yeast gene YEL039C): 1.2
The level of expressed mRNA in the presence of chemical substance/The level of expressed mRNA in the absence of chemical substance (yeast gene YER178W): 1.7
The level of expressed mRNA in the presence of chemical substance/The level of expressed mRNA in the absence of chemical substance (yeast gene YFL016C): 6.4
The level of expressed mRNA in the presence of chemical substance/The level of expressed mRNA in the absence of chemical substance (yeast gene YGL018C): 0.5
The level of expressed mRNA in the presence of chemical substance/The level of expressed mRNA in the absence of chemical substance (yeast gene YGL187C): 0.6
The level of expressed mRNA in the presence of chemical substance/The level of expressed mRNA in the absence of chemical substance (yeast gene YGL191W): 1.1
The level of expressed mRNA in the presence of chemical substance/The level of expressed mRNA in the absence of chemical substance (yeast gene YGR008C): 3.1
The level of expressed mRNA in the presence of chemical substance/The level of expressed mRNA in the absence of chemical substance (yeast gene YGR028W): 1.7
The level of expressed mRNA in the presence of chemical substance/The level of expressed mRNA in the absence of chemical substance (yeast gene YGR062C): 1.0
The level of expressed mRNA in the presence of chemical substance/The level of expressed mRNA in the absence of chemical substance (yeast gene YGR076C): 1.2
The level of expressed mRNA in the presence of chemical substance/The level of expressed mRNA in the absence of chemical substance (yeast gene YGR082W): 0.6
The level of expressed mRNA in the presence of chemical substance/The level of expressed mRNA in the absence of chemical substance (yeast gene YGR174C): 1.8
The level of expressed mRNA in the presence of chemical substance/The level of expressed mRNA in the absence of chemical substance (yeast gene YGR244C): 1.4
The level of expressed mRNA in the presence of chemical substance/The level of expressed mRNA in the absence of chemical substance (yeast gene YHR008C): 1.7
The level of expressed mRNA in the presence of chemical substance/The level of expressed mRNA in the absence of chemical substance (yeast gene YIL155C): 2.5
The level of expressed mRNA in the presence of chemical substance/The level of expressed mRNA in the absence of chemical substance (yeast gene YJL096W): 1.0
The level of expressed mRNA in the presence of chemical substance/The level of expressed mRNA in the absence of chemical substance (yeast gene YJL102W): 3.1
The level of expressed mRNA in the presence of chemical substance/The level of expressed mRNA in the absence of chemical substance (yeast gene YJL133W): 0.6
The level of expressed mRNA in the presence of chemical substance/The level of expressed mRNA in the absence of chemical substance (yeast gene YJL166W): 1.3
The level of expressed mRNA in the presence of chemical substance/The level of expressed mRNA in the absence of chemical substance (yeast gene YJL180C): 1.4
The level of expressed mRNA in the presence of chemical substance/The level of expressed mRNA in the absence of chemical substance (yeast gene YJR045C): 3.2
The level of expressed mRNA in the presence of chemical substance/The level of expressed mRNA in the absence of chemical substance (yeast gene YJR077C): 0.4

Source: US8192962B2, “Processes for detecting toxic substances” (Daikin Industries, Ltd., priority 2001, dated 2012)
